# Patent US20210330611A1, “THERAPY FOR NEUROLOGICAL DISEASES/DISORDERS” (priority 2020, published 2021)
# Where “and” joins values, the source holds several entries; their conditions need not be identical. Equal values may be shown once. Where a name gives a salt, the structure may show the parent alone. Read-outs that look alike come from different tables or passages of the source.
# How the values were obtained:
# Type in all cases: cell-based, rat
# [1] = test system: fibrin-induced microglia activation; assay: Image-based assay of fibrin-induced microglia activation (HTS and dose response); conditions: for inhibition at 10 µM: read-out: Fibrin % inhibition
# [2] = test system: LPS-induced microglia activation; assay: Image-based assay of LPS-induced microglia activation (HTS and dose response)
# [3] = test system: fibrin- and LPS-induced microglia activation; assay: cells
# [4] = Rattus norvegicus, Microglia, primary microglia HTS, fibrin stimulation, compounds at 10 μM
# [5] = Rattus norvegicus, Microglia, primary microglia HTS, LPS stimulation, compounds at 10 μM; read-out: LPS % inhibition
# [6] = quadrant by fibrin and LPS inhibition, HTS at 10 μM
# [7] = primary microglia HTS, fibrin stimulation, activation = cell size >800 μm2
# [8] = primary microglia HTS, LPS stimulation, activation = cell size >800 μm2
# [9] = quadrant by fibrin and LPS inhibition in HTS of 1907 compounds
# [10] = Rattus norvegicus, Microglia, read-out: LPS % inhibition
# [11] = Rattus norvegicus, Microglia, primary microglia HTS, fibrin stimulation, increased cell size (>800 μm^2) as marker of activation
# [12] = Rattus norvegicus, Microglia, 48 h, primary microglia HTS, LPS stimulation; increased cell size (>800 μm^2) as marker of activation; read-out: LPS % inhibition
# [13] = primary microglia HTS, fibrin stimulation, compounds at 10 μM
# [14] = primary microglia HTS, LPS stimulation, compounds at 10 μM
# [15] = Rattus norvegicus, Microglia, 48 h, read-out: LPS % inhibition
# [16] = Rattus norvegicus, Microglia, primary microglia HTS, fibrin stimulation, cell size >800 μm2 as marker of activation
# [17] = Rattus norvegicus, Microglia, 48 h; read-out: LPS % inhibition
# [18] = classification by fibrin and LPS inhibition in HTS
# [19] = classification by fibrin and LPS inhibition, HTS at 10 μM
# [20] = primary microglia HTS, fibrin stimulation, increased cell size (>800 μm^2) as marker of activation
# [21] = primary microglia HTS, LPS stimulation; increased cell size (>800 μm^2) as marker of activation
molecule,measurement,setting,value
O=C(CCCN1CCN(c2ccccn2)CC1)c1ccc(F)cc1 [Azaperone],inhibition at 10 µM,[1]; [4],-4%
same,inhibition at 10 µM,[2]; [5],12%
same,Quadrant (FIG. 5b),[3]; [6],Q4
Hexylene Glycol,Fibrin % inhibition,[1]; [7],−8%
same,LPS % inhibition,[2]; [8],12%
same,Quadrant (FIG. 5b),[3]; [9],Q4
CN(N=O)C(=O)N[C@@H](C=O)[C@@H](O)[C@H](O)[C@H](O)CO [Streptozocin],inhibition at 10 µM,"[1]; Rattus norvegicus, Microglia",-30%
same,inhibition at 10 µM,[2]; [10],19%
same,Quadrant (FIG. 5b),[3],Q4
COC(=O)C1=CCCN(C)C1 [Arecoline],inhibition at 10 µM,[1]; [4],17%
same,inhibition at 10 µM,[2]; [5],14%
same,Quadrant (FIG. 5b),[3]; [6],Q4
CC/C(=C(\c1ccccc1)c1ccc(OCCN(C)C)cc1)c1ccccc1 [Tamoxifen],inhibition at 10 µM,"[1]; Rattus norvegicus, Microglia",14%
same,inhibition at 10 µM,[2]; [10],5%
same,Quadrant (FIG. 5b),[3],Q4
"CC(C)c1c(C(=O)Nc2ccccc2)c(-c2ccccc2)c(-c2ccc(F)cc2)n1CC[C@@H](O)C[C@@H](O)CC(=O)[O-].CC(C)c1c(C(=O)Nc2ccccc2)c(-c2ccccc2)c(-c2ccc(F)cc2)n1CC[C@@H](O)C[C@@H](O)CC(=O)[O-].[Ca+2] [Atorvastatin calcium, reference compound]",IC50,[1]; read-out: Fibrin IC50,0.6 µM
same,IC50,[1]; read-out: Fibrin IC50 (uM) (Suppl. Table 7),0.6 µM
same,LPS % inhibition,[2],88%
same,IC50,[2]; read-out: LPS IC50,3 µM
same,IC50,[2]; read-out: LPS IC50 (uM) (Suppl. Table 7),3 µM
same,Cherry-picked Hit (Suppl. Table 7),[3],HIT (key: HIT: Hits were defined as molecules that exhibited greater than 50% inhibition of either fibrin or LPS activation)
same,Hit,[3],HIT (key: HIT: Hits were defined as molecules that exhibited greater than 50% inhibition of either fibrin or LPS activation)
same,Quadrant (FIG. 5b),[3],Q2
Nc1cc(N2CCCCC2)nc(N)[n+]1[O-] [Minoxidil],inhibition at 10 µM,[1]; [11],-5%
same,inhibition at 10 µM,[2]; [12],9%
same,Quadrant (FIG. 5b),[3]; [9],Q4
OCc1cccnc1 [Nicotinyl Alcohol Tartrate],inhibition at 10 µM,[1]; [11],-5%
same,inhibition at 10 µM,[2]; [12],4%
O=C(O)COCCN1CCN(C(c2ccccc2)c2ccc(Cl)cc2)CC1 (centres unmarked) [Cetirizine],inhibition at 10 µM,"[1]; Rattus norvegicus, Microglia",5%
same,inhibition at 10 µM,[2]; [10],0%
same,Quadrant (FIG. 5b),[3],Q4
C[C@@H]([C@H](O)c1ccccc1)N(C)C,Fibrin % inhibition,[1]; [13],−52%
same,LPS % inhibition,[2]; [14],7%
same,Quadrant (FIG. 5b),[3]; [6],Q4
Cc1cc2nc3c(=O)[nH]c(=O)nc-3n(C[C@H](O)[C@H](O)[C@H](O)CO)c2cc1C [Riboflavin],Quadrant (FIG. 5b),[3],Q4
CC(C)C[C@H](CN)CC(=O)O [Pregabalin],inhibition at 10 µM,"[1]; Rattus norvegicus, Microglia",-5%
same,inhibition at 10 µM,[2]; [15],1%
same,Quadrant (FIG. 5b),[3],Q4
CNC(C)C(O)c1ccccc1 (centres unmarked) [Racephedrine Hydrochloride],inhibition at 10 µM,[1]; [16],-26%
same,inhibition at 10 µM,[2]; [17],17%
same,Quadrant (FIG. 5b),[3]; [18],Q4
CC(C)(C)c1ccc(C(O)CCCN2CCC(C(O)(c3ccccc3)c3ccccc3)CC2)cc1 (centres unmarked) [Terfenadine],inhibition at 10 µM,"[1]; Rattus norvegicus, Microglia",19%
same,inhibition at 10 µM,[2]; [10],7%
same,Quadrant (FIG. 5b),[3],Q4
CC(=O)S[C@@H]1CC2=CC(=O)CC[C@]2(C)[C@H]2CC[C@@]3(C)[C@@H](CC[C@@]34CCC(=O)O4)[C@H]12 [Spironolactone],inhibition at 10 µM,[2]; [15],20%
same,Quadrant (FIG. 5b),[3],Q4
CCn1cc(C(=O)O)c(=O)c2cc(F)c(N3CCNC(C)C3)c(F)c21 (centres unmarked) [Lomefloxacin],inhibition at 10 µM,"[1]; Rattus norvegicus, Microglia",7%
same,inhibition at 10 µM,[2]; [15],15%
same,Quadrant (FIG. 5b),[3],Q4
Beta-escin,Fibrin % inhibition,"[1]; primary HTS, 10 μM, fibrin-stimulated primary microglia",−11%
same,LPS % inhibition,"[2]; primary HTS, 10 μM, LPS-stimulated primary microglia",11%
same,Quadrant (FIG. 5b),"[3]; primary HTS, 10 μM",Q4
"COc1ccc2c(c1OC)C(=O)O[C@@H]2[C@H]1c2cc3c(cc2CCN1C)OCO3 [Hydrastine (1r,9s)]",Fibrin % inhibition,[1]; [7],−27%
same,LPS % inhibition,[2]; [8],10%
same,Quadrant (FIG. 5b),[3]; [9],Q4
CCn1cc(C(=O)O)c(=O)c2cc(F)c(N3CCN(C)CC3)cc21 [Pefloxacin],inhibition at 10 µM,[2]; [15],21%
Cn1nnnc1SCC1=C(C(=O)O)N2C(=O)[C@@H](NC(=O)[C@H](O)c3ccccc3)[C@H]2SC1 [cefamandole sodium],IC50,"[1]; Rattus norvegicus, Microglia, Table 7, read-out: fib_IC50",0.052 µM
same,IC50,"[2]; Rattus norvegicus, Microglia, Table 7; read-out: LPS_IC50",0.002 µM
same,Activity,"[3]; Table 7, fib = fibrin, LPS, tox = toxicity",fib/LPS
"Nc1ccc(C(=O)Oc2ccccc2)c(O)c1 [Fenamisal, Phenyl Aminosalicylate]",Fibrin % inhibition,[1]; [13],−8%
same,LPS % inhibition,[2]; [14],16%
same,Quadrant (FIG. 5b),[3]; [19],Q4
NCCCC(O)(P(=O)(O)O)P(=O)(O)O [Alendronic acid],inhibition at 10 µM,"[1]; Rattus norvegicus, Microglia",5%
same,inhibition at 10 µM,[2]; [10],18%
same,Quadrant (FIG. 5b),[3],Q4
C[C@H]1O[C@H](O[C@H]2[C@H](O)[C@@H](O)[C@@H](O[C@H]3[C@H](O)[C@@H](O)C(O)O[C@@H]3CO)O[C@@H]2CO)[C@H](O)[C@@H](O)[C@@H]1N[C@H]1C=C(CO)[C@@H](O)[C@H](O)[C@H]1O (some centres unmarked) [Acarbose],inhibition at 10 µM,[1]; [4],-22%
same,inhibition at 10 µM,[1]; [11],81%
same,inhibition at 10 µM,[2]; [12],62%
same,inhibition at 10 µM,[2]; [5],-5%
same,Quadrant (FIG. 5b),[3]; [9],Q2
same,Quadrant (FIG. 5b),[3]; [6],Q4
C[C@]12CC[C@H](O)CC1=CC[C@@H]1[C@@H]2CC[C@]2(C)C(=O)CC[C@@H]12 [Prasterone],inhibition at 10 µM,[1]; [16],1%
same,inhibition at 10 µM,[2]; [17],15%
same,Quadrant (FIG. 5b),[3]; [18],Q4
CN1[C@@H]2CC[C@H]1C[C@@H](OC(=O)[C@H](CO)c1ccccc1)C2 [Hyoscyamine],inhibition at 10 µM,[2]; [15],13%
Medroxyprogesterone [reference compound],IC50,"[1]; Table 1, dose response 0.001-20 μM, triplicates, primary rat microglia, 48 h, read-out: Fibrin IC50",> 20 µM
same,IC50,"[1]; dose response, fibrin-induced microglia activation, read-out: Fibrin IC50",> 20 µM
same,IC50,"[1]; fibrin-induced microglia activation, dose response, read-out: Fibrin IC50 (uM) (Suppl. Table 7)",> 20 µM
same,Fibrin % inhibition,[1]; [20],61%
same,IC50,"[2]; LPS-induced microglia activation, dose response; read-out: LPS IC50 (uM) (Suppl. Table 7)",8 µM
same,IC50,"[2]; Table 1; dose response 0.001-20 μM, triplicates, primary rat microglia, 48 h; read-out: LPS IC50",8 µM
same,IC50,"[2]; dose response, LPS-induced microglia activation; read-out: LPS IC50",8 µM
same,LPS % inhibition,[2]; [21],6%
same,Quadrant (FIG. 5b),"[3]; HTS of 1907 compounds, quadrant by fibrin and LPS inhibition",Q3
same,Quadrant (FIG. 5b),"[3]; Table 1, screen at 10 μM",Q3
same,Quadrant (FIG. 5b),[3]; [9],Q3
CN[C@@H](C)[C@@H](O)c1ccccc1 [Pseudoephedrine],inhibition at 10 µM,[1]; [16],-13%
same,inhibition at 10 µM,[2]; [17],5%
same,Quadrant (FIG. 5b),[3]; [18],Q4
OC[C@H]1O[C@H](O[C@H]2[C@H](O)[C@@H](O)C(O)O[C@@H]2CO)[C@H](O)[C@@H](O)[C@@H]1O (stereo partly drawn) [D-(+)-maltose],Fibrin % inhibition,[1]; [13],−7%
same,LPS % inhibition,[2]; [14],14%
same,Quadrant (FIG. 5b),[3]; [19],Q4
CN1CCCCC1CCN1c2ccccc2Sc2ccc([S+](C)[O-])cc21 (centres unmarked) [Mesoridazine],inhibition at 10 µM,"[1]; Rattus norvegicus, Microglia",-5%
"C#CC1(O)CC[C@H]2[C@@H]3CCC4=CC(=O)CC[C@@H]4[C@H]3CC[C@@]21CC (some centres unmarked) [Norgestrel, Levonorgestrel]",Fibrin % inhibition,[1]; [20],13%
same,LPS % inhibition,[2]; [21],14%
Dimenhydrinate,Quadrant (FIG. 5b),[3]; [19],Q4
C[C@H]1O[C@@H](O[C@H]2[C@@H](O)C[C@H](O[C@H]3[C@@H](O)C[C@H](O[C@H]4CC[C@@]5(C)[C@H](CC[C@@H]6[C@@H]5C[C@@H](O)[C@]5(C)[C@@H](C7=CC(=O)OC7)CC[C@]65O)C4)O[C@@H]3C)O[C@@H]2C)C[C@H](O)[C@@H]1O [Digoxin],Quadrant (FIG. 5b),[3],Q3 and Q4
CN1[C@@H]2CC[C@H]1C[C@@H](OC(=O)C(CO)c1ccccc1)C2 (some centres unmarked) [Atropine],inhibition at 10 µM,"[1]; Rattus norvegicus, Microglia",-21%
same,inhibition at 10 µM,[2]; [10],4%
C[C@]12CC[C@@H]3c4ccc(O)cc4C[C@@H](CCCCCCCCC[S+]([O-])CCCC(F)(F)C(F)(F)F)[C@H]3[C@@H]1CC[C@@H]2O (some centres unmarked) [Fulvestrant],inhibition at 10 µM,"[2]; Rattus norvegicus, Microglia, 48 h, primary microglia HTS, LPS stimulation, activation = cell size >800 μm2; read-out: LPS % inhibition",15%
same,Quadrant (FIG. 5b),[3]; [9],Q4
"CN1CCN(CCCN2c3ccccc3Sc3ccc(Cl)cc32)CC1 [Prochlorperazine dimaleate, reference compound]",Activity,[3],fib/LPS
same,Quadrant (FIG. 5b),[3],Q4
CC[C@H]1OC(=O)[C@H](C)[C@@H](O[C@H]2C[C@@](C)(OC)[C@@H](O)[C@H](C)O2)[C@H](C)[C@@H](O[C@@H]2O[C@H](C)C[C@H](N(C)C)[C@H]2O)[C@](C)(O)C[C@@H](C)C(=O)[C@H](C)[C@@H](O)[C@]1(C)O [Erythromycin],inhibition at 10 µM,[2]; [5],20%
same,LPS % inhibition,"[2]; primary microglia HTS, LPS stimulation, compounds at 10 μM; 10 µM",13%
same,Quadrant (FIG. 5b),[3]; [19],Q4
O=C(O)c1cn(C2CC2)c2cc(N3CCNCC3)c(F)cc2c1=O [Ciprofloxacin],inhibition at 10 µM,"[1]; Rattus norvegicus, Microglia",-30%
same,inhibition at 10 µM,[2]; [10],17%
"COc1ccccc1OCCNCC(O)COc1cccc2[nH]c3ccccc3c12 (centres unmarked) [Carvedilol, Carvedilol Phosphate]",LPS % inhibition,[2]; 10 µM,15% and 19%
same,Quadrant (FIG. 5b),[3],Q4
Cc1cn([C@H]2C[C@H](N=[N+]=[N-])[C@@H](CO)O2)c(=O)[nH]c1=O [Zidovudine],LPS % inhibition,[2]; 10 µM,13%
same,inhibition at 10 µM,[2]; [10],9%
same,Quadrant (FIG. 5b),[3],Q4
